Measurements: US8846849B2, “Tissue sealants from plasma derived proteins” (Ethicon, Inc., priority 2011, dated 2014)

Columns and labels:
[1] = Hydrolysis of NHS active esters in D2O monitored by NMR; format: physicochemical; settings: in D2O at 25° C.; for Estimated Time for 95% Hydrolysis / Estimated Time for 10% Hydrolysis: NMR; for k = Constant in % Hydrolysis, y = k Exp(−mx) / m = Relative Rate in % Hydrolysis, y = k Exp(−mx): x = Time
Description: The relative reactivity of the active esters was determined by monitoring the rate of hydrolytic degradation in D2O at room temperature by NMR as shown in FIG. 4.
Various NHS active esters shown in FIG. 4 are the 4-Arm-TKHEED-Diglycolate-NHS (T-Dig-NHS or T-DG-N), the 4-Arm-Quadrol-Diglycolate-NHS (Q-Dig-NHS or Q-DG-N), the 4-Arm-PEG-Diglycolate-NHS (PEG-Dig-NHS or PEG-DG-N), the 4-Arm-TKHEED-Glutarate-NHS (T-Glut-NHS or T-Glut-N), and the 2-Arm-PEG-Diacid-NHS (PEG-NHS). It was observed that diglycolate-containing esters are the fastest hydrolyzing active esters, meaning to hydrolyze more than 95% in about 30 to 60 minutes irrespective of the core structure. […] These compounds appear to hydrolyze only about 10% or less in about 80 to 100 minutes.
Hydrolysis degradation parameters are summarized in Table 1 qualitatively from the chart in FIG. 4. It is observed that the Relative Rate, m, (in the exponential equation) for all the Diglycolate-NHS esters are within about 20% of each other. However, the rates are much faster than the others; for example, T-Dig-NHS (or T-DG-N) is 144 times faster than T-Glut-NHS, and 98 times faster than PEG-NHS. The degradation profiles of cross-linker A (T-DG-NHS), B (Q-Dig-NHS) and C (PEG-Dig-NHS) correspond to the instant invention, while the crosslinking agent D (T-Glut-NHS) and E (PEG-NHS) correspond to control groups.

[2] = target: T1, fibrinogen (BAC-2) solution (Homo sapiens, UniProt P02671+P02675+P02679); assay: Qualitative rate of gelation of BAC-2 (fibrinogen) solution with active ester cross-linker; settings: weight ratio cross-linker to fibrinogen 1:1, fibrinogen approx. 70 mg/ml, room temperature
T1 construct: Powdered BAC-2, a blood plasma derived product was obtained from Omrix BioPharmaceuticals; purchased Omrix BioPharmaceuticals; host or cells: blood plasma
T1 sequence (P02671 20-629 limits assumed): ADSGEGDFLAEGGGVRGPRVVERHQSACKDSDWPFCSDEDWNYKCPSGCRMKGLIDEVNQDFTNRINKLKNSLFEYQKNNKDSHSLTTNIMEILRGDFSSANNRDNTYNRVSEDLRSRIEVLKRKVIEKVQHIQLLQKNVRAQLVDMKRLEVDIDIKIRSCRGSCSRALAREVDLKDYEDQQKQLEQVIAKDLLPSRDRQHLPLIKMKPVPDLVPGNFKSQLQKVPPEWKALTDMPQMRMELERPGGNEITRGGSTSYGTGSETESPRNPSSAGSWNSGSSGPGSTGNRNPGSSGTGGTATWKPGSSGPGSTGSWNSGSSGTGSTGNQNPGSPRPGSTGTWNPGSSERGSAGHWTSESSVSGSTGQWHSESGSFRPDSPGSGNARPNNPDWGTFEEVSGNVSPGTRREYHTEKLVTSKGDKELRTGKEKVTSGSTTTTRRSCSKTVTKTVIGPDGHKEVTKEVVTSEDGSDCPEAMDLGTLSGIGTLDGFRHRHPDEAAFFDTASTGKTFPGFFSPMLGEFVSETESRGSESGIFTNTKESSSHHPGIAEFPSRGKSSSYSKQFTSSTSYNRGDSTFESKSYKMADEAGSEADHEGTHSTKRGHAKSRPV
T1 sequence (P02675 31-491): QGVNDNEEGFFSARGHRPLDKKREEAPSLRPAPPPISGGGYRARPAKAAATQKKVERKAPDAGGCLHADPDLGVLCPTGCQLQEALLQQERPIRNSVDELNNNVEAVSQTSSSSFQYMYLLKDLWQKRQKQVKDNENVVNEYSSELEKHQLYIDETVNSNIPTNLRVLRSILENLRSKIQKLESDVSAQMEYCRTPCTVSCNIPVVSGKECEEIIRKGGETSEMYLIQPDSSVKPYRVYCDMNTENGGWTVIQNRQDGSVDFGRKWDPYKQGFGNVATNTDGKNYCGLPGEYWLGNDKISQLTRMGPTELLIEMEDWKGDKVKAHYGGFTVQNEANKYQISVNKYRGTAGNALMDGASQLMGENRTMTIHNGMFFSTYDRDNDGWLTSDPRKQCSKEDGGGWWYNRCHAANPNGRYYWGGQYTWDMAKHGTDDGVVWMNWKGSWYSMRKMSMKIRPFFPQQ
T1 sequence (P02679 27-433 limits assumed): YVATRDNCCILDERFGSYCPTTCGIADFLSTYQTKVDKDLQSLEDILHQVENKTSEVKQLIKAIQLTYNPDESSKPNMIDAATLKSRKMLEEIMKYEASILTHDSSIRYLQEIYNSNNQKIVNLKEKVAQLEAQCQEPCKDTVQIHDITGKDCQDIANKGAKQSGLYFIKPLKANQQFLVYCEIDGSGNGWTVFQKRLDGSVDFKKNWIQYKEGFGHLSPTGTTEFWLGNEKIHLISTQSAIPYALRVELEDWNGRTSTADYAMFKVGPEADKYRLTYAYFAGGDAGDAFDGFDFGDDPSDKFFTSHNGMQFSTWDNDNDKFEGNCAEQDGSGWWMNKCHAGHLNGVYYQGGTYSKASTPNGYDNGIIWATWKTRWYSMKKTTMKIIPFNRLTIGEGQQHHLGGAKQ
Description: Sealants based on the inventive compositions were prepared by using an aqueous solution of BAC-2 (about 7% fibrinogen, or 70 mg/ml) where the crosslinking agent in the form of a powder was added at a selected composition and mixed well for 1 to 2 minutes up to gellation.
Crosslinking agents A, B, C correspond to the instant invention, while D and E correspond to control groups. The solid NHS ester, preferably in a powder form, was added to the BAC-2 solution at room temperature in a test tube at a weight ratio of 1 to 1 for active ester to fibrinogen, and mixed well. The time for gelation, defined qualitatively as the point when the BAC-2 solution in the test tube no longer flowed, was noted and recorded as shown in Table 2.
Sealants were prepared using an aqueous solution of fibrinogen (about 7% solution), where powder of either T-DG-N or PEG-DG-N was added at a selected composition based on the fibrinogen content. […] The in vitro rate of degradation of the hydrogel (or sealant) was determined in an enzymatic medium of plasmin at a concentration of 3.3 microgram/ml by determining the % clot remaining by gravimetric method after a given duration of exposure.

[3] = Water solubility of diglycolate-NHS esters; format: physicochemical
[4] = Hydrolytic degradation of sealant in de-ionized water at 37° C. by pH profiling; format: physicochemical; settings: deionized water 37° C., constant pH 7.4
Description: Sealant with ester links undergoing hydrolytic degradation in PBS at 37° C. was evaluated by the % weight loss method. Sealant degradation in de-ionized (DI) water causes the pH level of the solution to […], which can be titrated by addition of a basic compound to maintain a constant pH of 7.4 at 37° C. until such time that no more basic compound was needed to maintain a neutral solution; the total time for titration was noted.
As the Diglycolate-NHS/BAC-2 system is a hydrogel of fibrinogen with ester based cross-links, its degradation was followed in the pH profiler of de-ionized water at 37° C., where a base was added to neutralize the acid formed upon ester hydrolysis with time, to maintain a constant neutral pH. Cross-linker weight % was varied based on fibrinogen content.

Compound: 4-Arm-Quadrol-Diglycolate-NHS [Q-DG-N]
- Estimated Time for 95% Hydrolysis [1]: 60 min
- k = Constant in % Hydrolysis, y = k Exp(−mx) [1]: 107
- m = Relative Rate in % Hydrolysis, y = k Exp(−mx) [1]: 0.084
- Qualitative observation of Gelation [2]: 1 to 2 min
- water solubility [3]: about 25%

Compound: 4-Arm-TKHEED-Glutarate-NHS [T-Glut-NHS, reference compound]
- Estimated Time for 10% Hydrolysis [1]: 100 min
- k = Constant in % Hydrolysis, y = k Exp(−mx) [1]: 65
- m = Relative Rate in % Hydrolysis, y = k Exp(−mx) [1]: 0.00072
- Qualitative observation of Gelation [2]: 30 to 60 min

Compound: O=C(CCOCCOCCOCCOCCOCCOCCOCCOCCOCCC(=O)ON1C(=O)CCC1=O)ON1C(=O)CCC1=O [PEG-NHS, Bis-dPEG(9)-NHS ester, reference compound]
- Estimated Time for 10% Hydrolysis [1]: 80 min
- k = Constant in % Hydrolysis, y = k Exp(−mx) [1]: 98
- m = Relative Rate in % Hydrolysis, y = k Exp(−mx) [1]: 0.00106
- Qualitative observation of Gelation [2]: 15 to 30 min

Compound: O=C(COCC(=O)ON1C(=O)CCC1=O)OCCN(CCOC(=O)COCC(=O)ON1C(=O)CCC1=O)CCN(CCOC(=O)COCC(=O)ON1C(=O)CCC1=O)CCOC(=O)COCC(=O)ON1C(=O)CCC1=O [T-DG-N, 4-Arm TKHEED-tetra Diglycolate-tetra-NHS ester]
- hydrolysis rate, times faster than PEG-NHS [1]: 98 times
- hydrolysis rate, times faster than T-Glut-NHS [1]: 144 times
- Estimated Time for 95% Hydrolysis [1]: 30 min
- k = Constant in % Hydrolysis, y = k Exp(−mx) [1]: 62
- m = Relative Rate in % Hydrolysis, y = k Exp(−mx) [1]: 0.104
- Qualitative observation of Gelation [2]: 1 to 2 min
- water solubility [3]: more than 85%
- Longevity of sealant, Avg. ([4]; NHS cross-linker 30 wt % based on fibrinogen): 2.7 days
- Longevity of sealant, Avg. ([4]; NHS cross-linker 50 wt % based on fibrinogen): 7.1 days
- Longevity of sealant, Avg. ([4]; NHS cross-linker 60 wt % based on fibrinogen): 16.7 days
